Data from US4588731A, “Derivatives of isoxazolo[4,5-c]quinoline(2H)-3-one and method of preparation and use as anxiolytic agents” (Roussel Uclaf, priority 1985, dated 1986).

Tests used:
benzodiazepine receptors = assay: Affinity for benzodiazepine receptors (3H diazepam displacement, rat brain cortex membranes); assay type: binding, rats; settings: 3H diazepam 10^-9 M, 30 minutes at 0° C, read-out: C.I. 50 (concentration inhibiting 50% of the specific bond of 3H diazepam)
Procedure: A. Affinity for benzodiazepine receptors
The technique was inspired by that of Mohler et al [Science, Vol. 198 p. 849-851 (1977] in which the cortex from the brains of male rats weighing on average 150 g were homogenized to a twentieth (weight/volume) in 0.32M sucrose. After centrifuging the homogenate at 1000 g for 10 minutes at 0° C., the supernatant was centrifuged at 30,000 g for 20 minutes at 4° C. The residue was suspended in 20 volumes of Tris buffer HCl 50 mM pH 7.4 and centrifuged at 30,000 g for 20 minutes at 4° C. The new residue obtained was placed in 50 ml of Krebs Tris buffer HCl pH 7.4
2 ml of the suspension in the presence of ^3 H diazepam at a concentration of 10^-9 M were then incubated for 30 minutes at 0° C: (i) alone, (ii) with increasing concentrations of the product to be tested or, (iii) to determine the non-specific fixation, with non-radioactive diazepam at a concentration of 10^-6 M. The incubated suspension were filtered on Whatman GF/C and the filters were washed twice with 5 ml of Krebs Tris buffer HCl pH 7.4 at 0° C. The radioactivity of the filters was measured by liquid scintillation and the activity of the product was expressed in C.I.50, the concentration inhibiting 50% of the specific bond of ^3 H diazepam.

mice = assay: Acute toxicity, oral route in mice (LD0); assay type: in vivo
Procedure: The lethal doses LD0 of the different compounds tested after administration by oral route in mice were evaluated. The maximum dose not provoking any mortality in 8 days was called LD0 and the results obtained are in Table II.

[1] = tested on: level of serous corticosterone; assay: Activity on serous level of corticosterone after stress from noise; assay type: in vivo; settings: Rattus norvegicus, 1 h; rats, oral, stress from noise (90 decibels) one hour after dosing; read-out: DE50 (dose which reduced the increase in the level of serous corticosterone by 50%)
Procedure: C. Activity on serous level of corticosterone after stress from noise.
Groups of 5 rats were formed the day before the test and placed in a quiet room. The compounds were administered orally the following day between 8 and 9 o'clock in the morning. One hour afterwards, stress was applied which consisted of taking the animals from the cage and placing them in a room where a radio was playing loudly (90 decibels), then half an hour later, giving them an intraperitoneal puncture without injection. Ten minutes after this, the rats were anesthetized with halothane and samples of blood were taken by decapitation. The levels of serous corticosterone were then determined.
The results are expressed in DE50, that is to say in a dose of the compound tested which reduced the increase in the level of serous corticosterone by 50% in animals treated in comparison with the control animals. The results were DE50 in mg/kg of <50 and <100 for the compounds of Examples 2 and 4, respectively. Stress was less noticeable in the treated animals and those animals had therefore a degree of anxiety less than that of the control animals.

| Structure (SMILES) | IC50 (benzodiazepine receptors) | LD0 (maximum dose not provoking any mortality in 8 days) (mice) | ED50 [1] |
| --- | --- | --- | --- |
| O=c1c2cnc3ccccc3c2on1-c1ccccc1 [Example 1, 2-phenylisoxazolo(4,5-c)quinolin-3-(2H)-one] | 0.12 µM | ≥ 400 mg/kg |  |
| O=c1c2cnc3ccc(F)cc3c2on1-c1ccccc1 [Example 2, 8-fluoro-2-phenylisoxazolo(4,5-c)quinolin-3-(2H)-one] | 0.4 µM | ≥ 400 mg/kg | < 50 mg/kg |
| COc1ccc2c(c1)ncc1c(=O)n(-c3ccccc3)oc12 [Example 3, 7-methoxy-2-phenylisoxazolo(4,5-c)quinolin-3-(2H)-one] |  | ≥ 200 mg/kg |  |
| COc1ccc2ncc3c(=O)n(-c4ccccc4)oc3c2c1 [Example 4, 8-methoxy-2-phenylisoxazolo(4,5-c)quinolin-3-(2H)-one] | 2.46 µM | 200 mg/kg | < 100 mg/kg |
| O=c1c2cnc3ccc(C(F)(F)F)cc3c2on1-c1ccccc1 [Example 5, 8-trifluoromethyl-2-phenylisoxazolo(4,5-c)quinolin-3-(2H)-one] |  | ≥ 200 mg/kg |  |
| O=c1c2cnc3ccc(Cl)cc3c2on1-c1ccccc1 [Example 7, 8-chloro-2-phenylisoxazolo(4,5-c)quinolin-3-(2H)-one] |  | ≥ 100 mg/kg |  |
